In the supplement of paper PMC10307832:

Assays:
Assay in all cases: relative viability (nuclei count vs DMSO), 5 days (fraction); higher = more cells survive
CX-5461 + Palbociclib = compound: Cc1cnc(CNC(=O)c2c(=O)c3ccc(N4CCCN(C)CC4)nc3n3c2sc2ccccc23)cn1 [CX-5461] + CC(=O)c1c(C)c2cnc(Nc3ccc(N4CCNCC4)cn3)nc2n(C2CCCC2)c1=O [Palbociclib] (partner 0.5 µM)
Procedure, shortened: (§1)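 Lung cancer cell lines in 1536-well plates were dosed by pin tool the day after seeding, either with one drug alone or with a fixed anchor-drug dose plus five library-drug doses (not always all listed) in √10 steps. After 5 days, cells were fixed and their nuclei stained in one step (final 0.05% Triton X-100, 1% formaldehyde, 1 ug/ml Hoechst), then counted on 4× images. Relative viability is the nuclei count in treated wells divided by that in vehicle wells. Values are medians of duplicate plates.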

CX-5461 + Pemetrexed = compound: Cc1cnc(CNC(=O)c2c(=O)c3ccc(N4CCCN(C)CC4)nc3n3c2sc2ccccc23)cn1 [CX-5461] + Nc1nc2[nH]cc(CCc3ccc(C(=O)N[C@@H](CCC(=O)O)C(=O)O)cc3)c2c(=O)[nH]1 [Pemetrexed] (partner 0.2 µM)
Procedure, shortened: as §1

IMD-0354 + Alpelisib = compound: O=C(Nc1cc(C(F)(F)F)cc(C(F)(F)F)c1)c1cc(Cl)ccc1O [IMD-0354] + Cc1nc(NC(=O)N2CCC[C@H]2C(N)=O)sc1-c1ccnc(C(C)(C)C(F)(F)F)c1 [Alpelisib] (partner 2 µM)
Procedure, shortened: as §1

IMD-0354 + Decitabine = compound: O=C(Nc1cc(C(F)(F)F)cc(C(F)(F)F)c1)c1cc(Cl)ccc1O [IMD-0354] + Nc1ncn([C@H]2C[C@H](O)[C@@H](CO)O2)c(=O)n1 [Decitabine] (partner 2 µM)
Procedure, shortened: as §1

| Cell Line | relative viability (CX-5461 + Palbociclib; first compound 0.01 µM) | relative viability (CX-5461 + Palbociclib; first compound 0.03162 µM) | relative viability (CX-5461 + Palbociclib; first compound 0.1 µM) | relative viability (CX-5461 + Palbociclib; first compound 0.3162 µM) | relative viability (CX-5461 + Palbociclib; first compound 1 µM) | relative viability (CX-5461 + Pemetrexed; first compound 0.01 µM) | relative viability (CX-5461 + Pemetrexed; first compound 0.03162 µM) | relative viability (CX-5461 + Pemetrexed; first compound 0.1 µM) | relative viability (CX-5461 + Pemetrexed; first compound 0.3162 µM) | relative viability (CX-5461 + Pemetrexed; first compound 1 µM) | relative viability (IMD-0354 + Alpelisib; first compound 0.04 µM) | relative viability (IMD-0354 + Alpelisib; first compound 0.1265 µM) | relative viability (IMD-0354 + Alpelisib; first compound 0.4 µM) | relative viability (IMD-0354 + Alpelisib; first compound 1.265 µM) | relative viability (IMD-0354 + Alpelisib; first compound 4 µM) | relative viability (IMD-0354 + Decitabine; first compound 0.04 µM) | relative viability (IMD-0354 + Decitabine; first compound 0.1265 µM) | relative viability (IMD-0354 + Decitabine; first compound 0.4 µM) | relative viability (IMD-0354 + Decitabine; first compound 1.265 µM) | relative viability (IMD-0354 + Decitabine; first compound 4 µM) |
| --- | --- | --- | --- | --- | --- | --- | --- | --- | --- | --- | --- | --- | --- | --- | --- | --- | --- | --- | --- | --- |
| NCI-H1915 | 0.542 | 0.534 | 0.564 | 0.53 | 0.543 | 0.536 | 0.509 | 0.487 | 0.496 | 0.495 | 0.926 | 1.05 | 0.854 | 0.612 | 0.214 | 0.299 | 0.267 | 0.224 | 0.25 | 0.169 |
| NCI-H1944 | 0.335 | 0.362 | 0.338 | 0.294 | 0.317 | 0.561 | 0.653 | 0.531 | 0.451 | 0.271 | 0.694 | 0.854 |  | 0.902 | 0.144 | 0.44 | 0.451 | 0.398 | 0.473 | 0.147 |
| NCI-H2023 | 0.413 | 0.373 |  | 0.309 | 0.0908 | 0.218 | 0.246 |  | 0.19 | 0.111 | 0.696 | 0.577 | 0.439 | 0.312 | 0.122 | 0.262 | 0.222 | 0.167 | 0.0889 | 0.0963 |
| COR-L 105 | 0.414 | 0.403 | 0.393 | 0.319 | 0.357 | 1.13 | 0.943 | 1.03 | 1.16 | 0.706 | 1.06 | 0.76 | 0.902 | 0.604 | 0.287 | 0.674 | 0.685 | 0.576 | 0.619 | 0.318 |
| RERF-LC-KJ | 1.03 | 1.16 | 0.713 | 0.956 | 0.742 | 0.508 | 0.465 | 0.442 | 0.403 | 0.434 | 0.823 | 0.71 | 0.586 | 0.404 | 0.303 | 0.901 | 0.64 | 0.493 | 0.183 | 0.166 |
| LXF-289 | 0.596 | 0.592 | 0.629 |  | 0.592 | 0.867 | 0.933 | 0.847 |  | 0.574 | 1.09 | 1.06 | 0.711 | 0.265 | 0.0502 | 0.375 | 0.312 | 0.393 | 0.356 | 0.201 |
| PC-14 | 0.467 | 0.466 | 0.239 | 0.492 | 0.0872 | 0.134 | 0.134 | 0.118 | 0.157 | 0.113 | 1.13 | 0.681 | 0.587 | 0.525 | 0.219 | 0.249 | 0.22 | 0.142 | 0.0934 | 0.0785 |
| NCI-H650 | 0.319 | 0.362 | 0.334 | 0.336 | 0.323 | 1.05 | 0.986 | 0.879 | 0.943 | 0.873 | 1.03 | 1.07 | 0.943 | 0.615 | 0.215 | 0.303 | 0.3 | 0.346 | 0.288 | 0.201 |
| NCI-H1666 | 0.63 | 0.624 | 0.678 | 0.626 | 0.572 | 0.854 | 0.848 | 1.01 | 0.828 | 0.769 | 0.982 | 0.961 | 0.966 | 0.208 | 0.196 | 0.718 | 0.751 | 0.716 | 0.531 | 0.393 |
| NCI-H2085 | 0.453 | 0.466 | 0.477 | 0.454 | 0.457 | 1.03 | 0.907 | 0.88 | 0.989 | 0.799 | 0.899 | 0.888 | 0.764 | 0.492 | 0.269 | 0.59 | 0.516 | 0.551 | 0.421 | 0.337 |
| NCI-H1734 | 0.325 | 0.391 | 0.34 | 0.317 | 0.292 | 0.404 | 0.435 | 0.419 | 0.39 | 0.432 | 0.944 | 0.786 | 0.422 | 0.452 | 0.254 | 0.513 | 0.491 | 0.467 | 0.389 | 0.213 |
| NCI-H2126 | 0.351 | 0.351 | 0.358 | 0.351 | 0.365 | 0.697 | 0.713 | 0.687 | 0.672 | 0.634 | 0.784 | 0.722 | 0.682 | 0.714 | 0.263 | 0.526 | 0.59 | 0.641 | 0.594 | 0.306 |
| EMC-BAC-2 | 0.515 | 0.515 | 0.468 | 0.433 | 0.412 | 0.435 | 0.439 | 0.395 | 0.443 | 0.399 | 0.796 | 0.766 | 0.448 | 0.611 | 0.25 | 0.955 | 0.994 | 0.696 |  | 0.282 |
| NCI-H1993 | 0.686 | 0.627 | 0.699 | 0.583 | 0.614 | 0.529 | 0.67 | 0.582 | 0.587 | 0.625 | 0.762 | 0.695 | 0.581 | 0.487 | 0.514 | 0.682 | 0.658 | 0.516 | 0.458 | 0.367 |
| NCI-H520 | 0.219 | 0.212 | 0.25 | 0.247 | 0.176 | 0.719 | 0.725 | 0.708 | 0.608 | 0.484 | 0.906 | 0.948 | 0.381 | 0.383 | 0.214 | 0.512 | 0.462 | 0.435 | 0.158 | 0.192 |
| NCI-H647 | 0.413 | 0.356 | 0.353 | 0.414 | 0.167 | 0.186 | 0.165 | 0.176 | 0.194 | 0.158 | 1.77 | 0.995 | 0.623 | 0.144 | 0.173 | 0.381 | 0.426 | 0.237 | 0.117 | 0.106 |
| NCI-H1792 | 0.608 | 0.719 | 0.736 | 0.736 | 0.602 | 0.897 | 0.929 | 0.964 | 1.02 | 0.296 | 0.822 | 0.506 | 0.874 | 0.677 | 0.336 | 0.675 | 0.38 | 0.387 | 0.358 | 0.174 |
| SW 1573 | 0.343 | 0.388 | 0.125 | 0.371 | 0.109 | 0.88 | 0.845 | 0.153 | 0.692 | 0.203 | 0.768 | 0.788 | 0.328 | 0.202 | 0.15 | 0.814 | 0.588 | 0.245 | 0.115 | 0.0911 |
| NCI-H2009 | 0.214 | 0.201 | 0.272 | 0.215 | 0.16 | 1.01 | 1.07 | 0.964 | 1.01 | 0.826 | 1.14 | 1.03 | 0.929 | 0.239 | 0.127 | 0.374 | 0.408 | 0.288 | 0.18 | 0.134 |
| LOU-NH91 | 0.516 | 0.557 | 0.513 | 0.439 | 0.478 | 0.35 | 0.377 | 0.409 | 0.354 | 0.344 | 0.755 | 0.729 | 0.541 | 0.244 | 0.231 | 0.834 | 0.722 | 0.448 | 0.223 | 0.243 |
| NCI-H2405 | 0.515 | 0.549 | 0.547 | 0.503 | 0.45 | 1.06 | 0.892 | 1 | 1.02 | 0.911 | 0.961 | 0.835 | 0.609 | 0.306 | 0.163 | 0.883 | 0.801 | 0.636 | 0.294 | 0.347 |
| LCLC-97TM1 | 0.211 | 0.254 | 0.198 | 0.208 | 0.227 | 0.178 | 0.193 | 0.196 | 0.103 | 0.155 |  | 0.272 | 0.245 | 0.207 | 0.113 | 0.232 | 0.257 | 0.199 | 0.162 | 0.115 |
| H3255 | 0.282 | 0.353 | 0.299 | 0.305 | 0.302 | 0.608 | 0.564 | 0.553 | 0.557 | 0.57 | 0.723 | 0.793 | 0.46 | 0.364 | 0.241 | 0.52 | 0.595 | 0.504 | 0.529 | 0.3 |
| LK-2 | 0.54 | 0.972 | 0.724 |  | 0.564 | 0.213 | 0.258 | 0.299 |  | 0.236 | 1.77 | 0.711 | 0.647 | 0.611 | 0.372 | 0.292 | 0.315 |  | 0.141 | 0.196 |
| NCI-H1437 | 0.278 | 0.328 | 0.346 | 0.308 | 0.279 | 0.31 | 0.307 | 0.268 | 0.307 | 0.29 | 1.24 | 1.07 | 0.711 | 0.219 | 0.239 | 0.635 | 0.538 | 0.34 | 0.257 | 0.229 |
| LU99A | 0.411 | 0.434 | 0.389 | 0.322 | 0.416 | 0.197 | 0.175 | 0.159 | 0.188 | 0.179 | 0.517 | 0.493 | 0.345 | 0.247 | 0.195 | 0.565 | 0.885 | 0.539 | 0.617 | 0.293 |
| HCC-827 | 0.452 | 0.529 | 0.538 | 0.437 | 0.582 | 0.292 | 0.253 | 0.268 | 0.225 | 0.331 | 0.888 | 0.978 | 0.752 | 0.574 | 0.216 | 0.369 | 0.346 | 0.296 | 0.19 | 0.196 |
